Measured values: patent US7491827B2, “Aryl sulfonamides useful as inhibitors of chemokine receptor activity” (Millennium Pharmaceuticals, Inc., priority 2003, dated 2009)
pKi: −log10 of the molar value.

These molecules were tested against T1, cloned human CCR8 receptor stably expressed in L1.2 cells (Homo sapiens, UniProt P51685) (assay: whole cell binding screen: inhibition of biotinylated human I309 binding to CCR8 (FMAT 8100 HTS)). Settings: Ki of compounds to inhibit I-309 binding to CCR8, L1.2/hCCR8 cells, biotinylated human I-309, 10 point concentration response starting at 10 μM.
T1 construct: expressed in transfected cells
Summary of the method: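 L1.2 murine pre-B cells stably expressing human CCR8 (4.0×10^5 cells/mL) in HBSS/HEPES/fatty-acid-free BSA/azide buffer were mixed with biotinylated human I309 and compounds for 0.5 h, read by FMAT fluorescence. 10-point curves from 10 μM final; percent inhibition normalized to no-inhibitor and 100 nM unlabeled I309 controls.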

T1 sequence (P51685 whole entry): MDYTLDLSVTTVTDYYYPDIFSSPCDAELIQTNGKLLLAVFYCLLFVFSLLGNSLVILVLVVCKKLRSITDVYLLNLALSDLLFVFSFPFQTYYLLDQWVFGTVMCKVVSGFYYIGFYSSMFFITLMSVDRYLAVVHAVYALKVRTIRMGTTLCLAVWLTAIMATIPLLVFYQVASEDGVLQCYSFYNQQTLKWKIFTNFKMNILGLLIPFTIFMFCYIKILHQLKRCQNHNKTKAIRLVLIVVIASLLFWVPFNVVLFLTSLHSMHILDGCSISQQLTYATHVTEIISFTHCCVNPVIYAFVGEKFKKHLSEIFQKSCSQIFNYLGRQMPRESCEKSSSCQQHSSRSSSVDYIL

`CN[C@@H](C)C(=O)N1CCC(NS(=O)(=O)c2ccc(NC(=O)c3ccccc3C)c3ccccc23)CC1` [Compound C-123, (S)-2-Methyl-N-{4-[1-(2-methylamno-propionyl)-piperidin-4-ylsulfamoyl]-naphthalen-1-yl}-benzamide] and `COCC(=O)N1CCC(NS(=O)(=O)c2ccc(NC(=O)c3ccccc3C)c3ccccc23)CC1` [Compound C-56, N{4-[1-(2-Methoxy-acetyl)-piperidin-4-ylsulfamoyl]-naphthalen-1-yl}-2-methyl-benzamide] cannot be ordered by pKi: over 6.30 for the first, over 6.30 for the second.

`O=C(Nc1ccc(S(=O)(=O)NCc2ccccc2)c2ccccc12)c1ccccc1` [Compound A-3, N-(4-Benzylsulfamoyl-naphthalen-1-yl)-benzamide] and `COc1ccc(NS(=O)(=O)c2ccc(N(C)C(=O)c3ccccc3)c3ccccc23)cc1` [Compound B-33, N-[4-(4-Methoxy-phenylsulfamoyl)-naphthalen-1-yl]-N-methyl-benzamide] cannot be ordered by pKi: over 6.30 for the first, over 4.52 for the second.

`COc1ccc(NS(=O)(=O)c2ccc(N3C(=O)c4ccccc4C3=O)c3ccccc23)cc1` [Compound A-2, 4-(1,3-Dioxo-1,3-dihydro-isoindol-2-yl)-naphthalene-1-sulfonic acid (4-methoxyphenyl)-amide] and `CCOC(=O)N1CCC(NS(=O)(=O)c2cccc3c(NC(=O)c4ccccc4)cccc23)CC1` [Compound H-6, 4-(5-Benzoylamino-naphthalene-1-sulfonylamino)-piperidine-1-carboxylic acid ethylester] cannot be ordered by pKi: over 4.52 for the first, over 6.30 for the second.

Same assay, conditions: L1.2/hCCR8 cells, biotinylated human I-309, 10 point concentration response starting at 10 μM; read-out: Ki of compounds to inhibit I-309 binding to CCR8

`O=C(Nc1ccc(S(=O)(=O)NCc2ccncc2)c2ccccc12)c1ccccc1` [Compound A-13, N-{4-[(Pyridin-4-ylmethyl)-sulfamoyl]-naphthalen-1-yl}-benzamide] and `COc1cccc(NS(=O)(=O)c2ccc(NC(=O)c3ccccc3)c3ccccc23)c1` [Compound A-1, N-[4-(3-Methoxy-phenylsulfamoyl)-naphthalen-1-yl]-benzamide] cannot be ordered by pKi: over 4.52 for the first, over 6.30 for the second.

`COc1ccc(NS(=O)(=O)c2ccc(NC(=S)Nc3ccccc3)c3ccccc23)cc1` [Compound B-9, 4-(3-Phenyl-thioureido)-naphthalene-1-sulfonic acid (4-methoxy-phenyl)-amide] and `COc1ccc(NS(=O)(=O)c2ccc(NC(=O)Nc3ccccc3)c3ccccc23)cc1` [Compound B-10, 4-(3-Phenyl-ureido)-naphthalene-1-sulfonic acid (4-methoxy-phenyl)-amide] cannot be ordered by pKi: over 4.52 for the first, over 4.52 for the second.

`Cc1ccccc1NC(=O)c1ccc(S(=O)(=O)NC2CCNCC2)c2ccccc12` [Compound F-5, 4-(Piperidin-4-ylsulfamoyl)-naphthalene-1-carboxylic acid o-tolylamide] and `Cc1ccccc1C(=O)Nc1ccc(S(=O)(=O)NC2CCNCC2(C)C)c2ccccc12` (racemic) [Compound C-11, (±)-N-[4-(3,3-Dimethyl-piperidin-4-ylsulfamoyl)-naphthalen-1-yl]-2-methyl-benzamide] cannot be ordered by pKi: over 4.52 for the first, over 6.30 for the second.

`CCN1CCC(NS(=O)(=O)c2cccc3c(NC(=O)c4ccccc4C)cccc23)CC1` [Compound H-14, N-[5-(1-Ethyl-piperidin-4-ylsulfamoyl)-naphthalen-1-yl]-2-methyl-benzamide] and `Cc1ccccc1C(=O)Nc1cccc2c(S(=O)(=O)NC3CCN(C(=O)N4CCOCC4)CC3)cccc12` [Compound H-11, 2-Methyl-N-{5-[1-(morpholine-4-carbonyl)-piperidin-4-ylsulfamoyl]-naphthalen-1-yl}-benzamide] cannot be ordered by pKi: over 6.30 for the first, over 6.30 for the second.

`Cc1ccccc1C(=O)Nc1ccc(S(=O)(=O)NC2CCNC2)c2c1CCCC2` (racemic) [Compound E-29, (±)-2-Methyl-N-[4-(pyrrolidin-3-ylsulfamoyl)-5,6,7,8-tetrahydro-naphthalen-1-yl]-benzamide] and `CCOC(=O)N1CCCC(NS(=O)(=O)c2ccc(NC(=O)c3ccccc3C)c3c2CCCC3)C1` (racemic) [Compound E-31, (±)-3-[4-(2-Methyl-benzoylamino)-5,6,7,8-tetrahydro-naphthalene-1-sulfonylamino]-piperidine-1-carboxylic acid ethyl ester] cannot be ordered by pKi: over 6.30 for the first, over 6.30 for the second.

`CCCC(=O)N1CCC(NS(=O)(=O)c2ccc(C(=O)NC3CCCCC3)c3ccccc23)CC1` [Compound F-7, 4-(1-Butyryl-piperidin-4-ylsulfamoyl)-naphthalene-1-carboxylic acid cyclohexylainde] and `O=C(NC1CCCCC1)c1ccc(S(=O)(=O)NC2CCNCC2)c2ccccc12` [Compound F-2, 4-(Piperidin-4-ylsulfamoyl)-naphthalene-1-carboxylic acid cyclohexylamide] cannot be ordered by pKi: over 6.30 for the first, over 4.52 for the second.

`COc1ccc(NS(=O)(=O)c2cc3c(c(NC(=O)c4ccccc4)c2)CCCC3)cc1` [Compound H-55, N-[3-(4-Methoxy-phenylsulfamoyl)-5,6,7,8-tetrahydro-naphthalen-1-yl]-benzamide] and `O=C(Nc1cccc2ccc(S(=O)(=O)Nc3ccc(F)cc3)cc12)c1ccccc1` [Compound H-48, N-[7-(4-Fluoro-phenylsulfamoyl)-naphthalen-1-yl]-benzamide] cannot be ordered by pKi: over 4.52 for the first, over 4.52 for the second.

`Cc1ccccc1C(=O)Nc1ccc(S(=O)(=O)NCCCN2CCCC2=O)c2c1CCCC2` [Compound E-24, 2-Methyl-N-{4-[3-(2-oxo-pyrrolidin-1-yl)-propylsulfamoyl]-5,6,7,8-tetrahydro-naphthalen-1-yl}-benzamide] and `COCC(=O)N1CCC(NS(=O)(=O)c2ccc(NC(=O)c3ccccc3C)c3c2CCCC3)CC1` [Compound E-18, N-{4-[1-(2-Methoxy-acetyl)-piperidin-4-ylsulfamoyl]-5,6,7,8-tetrahydro-naphthalen-1-yl}-2-methyl-benzamide] cannot be ordered by pKi: over 6.00 for the first, over 6.30 for the second.

`CCOC(=O)N1CCC(NS(=O)(=O)c2ccc(N3C(=O)c4ccccc4C3=O)c3ccccc23)CC1` [Compound A-18, 4-[4-(1,3-Dioxo-1,3-dihydro-isoindol-2-yl)-naphthalene-1-sulfonylamino]-piperidine-1-carboxylic acid ethyl ester] and `CCOC(=O)N1CCC(NS(=O)(=O)c2cccc3c(NC(=O)c4cccs4)cccc23)CC1` [Compound H-9, 4-15-[(Thiophene-2-carbonyl)-amino]-naphthalene-4-sulfonylamino-4-piperidine-1-carboxylic acid ethyl ester] cannot be ordered by pKi: over 6.30 for the first, over 6.00 for the second.

`CC(C)(C)OC(=O)N1CCC(NS(=O)(=O)c2ccc(C(=O)NC3CCOCC3)c3ccccc23)CC1` [Compound F-15, 4-[4-(Tetrahydro-pyran-4-ylcarbamoyl)-naphthalene-1-sulfonylamino]-piperidine-1-carboxylic acid tert-butyl ester] and `Cc1ccccc1C(=O)Nc1ccc(S(=O)(=O)NC2CCN(C(=O)OC(C)(C)C)CC2(C)C)c2ccccc12` (racemic) [Compound A-19, (±)-3,3-Dimethyl-4-[4-(2-methyl-benzoylamino)-naphthalene-0-sulfonylamino]-piperidine-1-carboxylic acid tert-butyl ester] cannot be ordered by pKi: over 4.52 for the first, over 6.30 for the second.

`Cc1ccccc1C(=O)Nc1ccc(S(=O)(=O)NC2CCN(c3nc4ccccc4o3)CC2)c2ccccc12` [Compound C-60, N-[4-(1-Benzooxazol-2-yl-piperidin-4-ylsulfamoyl)-naphthalen-1-yl]-2-methyl-benzamide] and `O=C(Nc1ccc(S(=O)(=O)NC2CCCC2)c2ccccc12)c1ccccc1` [Compound A-35, N-(4-Cyclopentysulfamoyl-naphthalen-1-yl)-benzamide] cannot be ordered by pKi: over 6.30 for the first, over 6.30 for the second.

`CC[C@H]1CN(C(=O)[C@@H]2CCCN2)CC[C@@H]1NS(=O)(=O)c1ccc(NC(=O)c2ccccc2C)c2ccccc12` [Compound J-31, (3S, 4S)-N-{4-[3-Ethyl-1-(pyrrolidine-2-(S)-carbonyl)-piperidin-4-ylsulfamoyl]-naphthalen-1-yl}-2-methyl-benzamide] and `CC[C@H]1CN(C(=O)[C@H](C)N)CC[C@@H]1NS(=O)(=O)c1ccc(NC(=O)c2ccccc2C)c2ccccc12` [Compound J-33, (3S, 4S)-N-{4-[1-(2-(S)-Amino-propionyl)-3-ethyl-piperidin-4-ylsulfamoyl]-naphthalen-1-yl}-2-methyl-benzamide] cannot be ordered by pKi: over 6.30 for the first, over 6.30 for the second.

`Cc1ccccc1C(=O)Nc1cccc2c(S(=O)(=O)N[C@H]3CCN(C(=O)CN(C)C)C[C@H]3C)cccc12` (racemic) [Compound K-1, (±)-(cis)-N-{5-[1-(2-Dimethylamino-acetyl)-3-methyl-piperidin-4-ylsulfamoyl]-naphthalen-1-yl}-2-methyl-benzamide] and `CCCC(=O)N1CC[C@H](NS(=O)(=O)c2ccc(NC(=O)c3ccccc3C)c3ccccc23)[C@@H](C)C1` (racemic) [Compound C-19, (±)-trans-N-[4-(1-Butyryl-3-methyl-piperidin-4-ylsulfamoyl)-naphthalen-1-yl]-2-methyl-benzamide] cannot be ordered by pKi: over 6.30 for the first, over 6.30 for the second.

`CN1CCCC(C(=O)Nc2ccc(S(=O)(=O)NC3CCNCC3)c3ccccc23)C1` [Compound D-22, 1-Methyl-piperidine-3-carboxylic acid [4-(piperidin-4-ylsulfamoyl)-naphthalen-1-yl]-amide] and `CCOC(=O)N1CCC(C)(NS(=O)(=O)c2ccc(NC(=O)c3ccccc3C)c3ccccc23)CC1` [Compound C-25, 4-Methyl-4-[4-(2-methyl-benzoylamino)-naphthalene-1-sulfonylamino]-piperidine-1-carboxylic acid ethyl ester] cannot be ordered by pKi: over 4.52 for the first, over 6.30 for the second.

Molecule `CCOC(=O)N1CCC(NS(=O)(=O)c2cccc3c(CNCc4ccc(Cl)cc4)cccc23)CC1` [Compound H-45, 4-{5-[(4-Chloro-benzylamino)-methyl]-naphthalene-1-sulfonylamino}-piperidine-1-carboxylic acid ethyl ester] has a pKi of over 6.30.
